Measurements: publication PMC12090178, “Exploring the Potential of Homologous Recombination Protein PALB2 in Synthetic Lethal Combinations” (ACS Chemical Biology, 2025)
pKd: −log10 of the molar value. Where a SMILES comes first, the peptide text is derived from it. Where no end group is shown, it is not given here. The star is where a group is joined. Azidoacetyl = [N-]=[N+]=NCC(=O)*

How the values were obtained:
[1] = system: HEK293 PALB2 IKZF3d/IKZF3d knock-in cells; assay: Cell viability assay (WST-1); type: cell-based; details: homozygous KI cells pretreated with 10 μM Pom, then DNA damaging drug, 5 days cotreatment, WST1
[2] = target: T1, PALB2 C-terminal domain (PALB2C) (Homo sapiens, UniProt Q86YC2); assay: Direct fluorescence polarization of labelled BRCA2 peptides; type: binding; details: for pKd: direct FP, PALB2C source Hi5 insect cells, labelled peptide 10 nM, PALB2C serially diluted from 4.4 μM, 20 mM HEPES, 100 mM NaCl, 1 mM DTT, 1 mM EDTA, 0.01% IGEPAL CA-630, 20 min RT, read at 25 °C, N = 3-20
T1 construct: C terminal part of Palb2 (aa 835-1186); His tag (C); 3C protease site; host or cells: Hi5 insect cells (virus produced and amplified in Sf9)
T1 sequence (Q86YC2 835-1186): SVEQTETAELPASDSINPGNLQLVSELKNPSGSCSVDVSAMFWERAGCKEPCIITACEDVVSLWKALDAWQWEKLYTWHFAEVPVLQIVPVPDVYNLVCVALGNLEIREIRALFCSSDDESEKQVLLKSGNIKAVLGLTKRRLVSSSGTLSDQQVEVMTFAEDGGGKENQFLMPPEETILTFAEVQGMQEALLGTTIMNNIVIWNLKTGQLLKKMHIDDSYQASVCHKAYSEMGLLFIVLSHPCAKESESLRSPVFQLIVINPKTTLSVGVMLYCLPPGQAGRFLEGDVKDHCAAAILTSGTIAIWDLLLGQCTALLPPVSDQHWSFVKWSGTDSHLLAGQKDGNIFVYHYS
Description: FLU-GG-[…] (Peptide Protein Research Ltd., Fareham, UK) was dissolved in DMSO at 1 μM. PALB2C (22 μM, in 20 mM HEPES, 100 mM NaCl, 1 mM DTT, 1 mM EDTA) was diluted to a final concentration of 4.4 μM (same buffer supplemented with 0.01% (v/v) IGEPAL CA-630). The protein was serially diluted and fluorescent peptide was added to a final concentration of 10 nM. After incubation in the dark at RT for 20 min, fluorescence polarization was measured (ex: 485:20, em: 535:25, 25 °C). KD was obtained by fitting the signal to a binding model using the python lmfit package with the nonlinear least-squares method.[51]
9 Fluorescent polarization assay
9.1.1 Insect cell expression
PALB2-C was synthesized by the EPFL protein production facility0F1. In short; the virus was produced and amplified in Sf9 cells. C-terminal His-Tagged 3C-PALB2C was grown in 5 L o f Hi5 cells and harvested after 3 days. Pellet was frozen, defrosted and resuspended in 200 mL of wash buffer, supplemented to 5 % glycerol (v/v), 50 μL benzonase, and 2 protease inhibitor tablets. The mixture was clarified with a French press for a total of 4 cycles and centrifu g e d a t 32 kcfg for 1 h. The supernatant was decanted, supplemented with imidazole to a final concentration of 25 mM and added to 5 mL of Ni-NTA bead s. The b ead s were in cub ated with […]
The beads were washed with 40 column volumes (CV) with wash buffer (500 mM NaCl, 20 mM HEPES, pH 7.5), 10 CV with wash buffer and 50 mM imid az o le . The protein was eluted with 6 CV of elution buffer (500 mM NaCl, 20 mM HEPES, 300 mM imidazole, pH 7.5) to a total volume of 38 mL. The elute was concentrated to 1 mL and injected onto a pre-equilibrated Superdex 200 10/300GL column (250 mM NaCl, 10 mM HEPES, 5 mM DTT, 1 mM EDTA, pH […]
A total volume of 950 μL PALBC was received at a concentration of 1 mg/mL (equals 22 μM) in the superdex buffer. This corresponds to a yield of 0.19 mg/L of Hi5 cells. […]
Concentration was measured on a NanoDrop 2000. The concentration was determined to be […]

Row | Molecule | synergistic toxicity with PALB2 depletion [1] | pKd [2] | other results
1 | CC[C@@]1(O)C(=O)OCc2c1cc1n(c2=O)Cc2cc3ccccc3nc2-1 [CPT, camptothecin] | noticeable synergistic toxicity | – | –
2 | CC[C@H](C)[C@H](NC(=O)[C@H](CCC(=O)O)NC(=O)[C@H](Cc1ccccc1)NC(=O)[C@H](Cc1ccccc1)NC(=O)[C@@H](NC(=O)CNC(=O)CNC(=O)c1ccc2c(c1)C(=O)OC21c2ccc(O)cc2Oc2cc(O)ccc21)[C@@H](C)O)C(=O)N[C@@H](Cc1ccccc1)C(=O)N[C@@H](CCCCN)C(=O)N[C@H](C(=O)N[C@@H](CCCNC(=N)N)C(=O)N[C@@H](CS)C(=O)N[C@@H](CC(N)=O)C(=O)N[C@@H](CCCCN)C(=O)N[C@@H](C)C(=O)N[C@@H](CC(=O)O)C(=O)N[C@@H](CC(C)C)C(=O)NCC(=O)N1CCC[C@H]1C(=O)N[C@H](C(=O)N[C@@H](CO)C(=O)N[C@@H](CC(C)C)C(=O)N[C@@H](CC(N)=O)C(=O)N[C@@H](Cc1c[nH]c2ccccc12)C(=O)N[C@@H](Cc1ccccc1)C(=O)N[C@@H](CCC(=O)O)C(=O)N[C@@H](CCC(=O)O)C(=O)N[C@@H](CC(C)C)C(=O)N[C@@H](CO)C(=O)N[C@@H](CO)C(=O)N[C@@H](CCC(=O)O)C(=O)N[C@@H](C)C(N)=O)[C@@H](C)CC)[C@@H](C)O [FAM-GG-BRCA(10-39)] (HELM PEPTIDE1{[O=C1OC2(c3ccc(O)cc3Oc3cc(O)ccc32)c2ccc(C(=O)[*:2])cc21].G.G.T.F.F.E.I.F.K.T.R.C.N.K.A.D.L.G.P.I.S.L.N.W.F.E.E.L.S.S.E.A.[am]}$$$$V2.0; N-terminus and C-terminus assumed) | – | – | gain in binding affinity from residues 12-21 ([2]; FAM-GG-BRCA(10-39) compared with FAM-GG-BRCA(21-39)): 6–10 fold
3 | O=C(c1cc(Cc2n[nH]c(=O)c3ccccc23)ccc1F)N1CCN(C(=O)C2CC2)CC1 [olaparib] | noticeable synergistic toxicity | – | –
4 | Cy5-DBCO-GG-BRCA(21-39): Cy5-modified peptide: P38 modified with 2-azidoacetic acid and Cy5-DBCO ({Cy5‑DBCO-Azidoacetyl}-GGKADLGPISLNWFEELSSEA; UniProt P51587 21-39, looked up, fragment) | – | 7.19 | –
5 | FLU-GG-KADLGPISLNWFEELSSEA [FAM-GG-BRCA(21-39), fluorescein-labelled BRCA2(21-39) peptide, Peptide Protein Research Ltd; FP probe] | – | 6.20 | –
